# *1 amine or outer side, *2 acyl side, *3 side chain or, on linkers, in order; H or OH if unused. Where a SMILES comes first, the peptide text is derived from it. Bridges are numbered along the chain shown (N, C = ends). Roman numbers before positions name the chains, in order. [ ]: non-standard residue; d: D form. Actinocin(9to1) = Cc1c2oc3c(C)ccc(C(=O)[*:1])c3nc-2c(C(=O)[*:2])c(N)c1=O; NMeV = CN[C@H](C(=O)O)C(C)C; Sar = CNCC(=O)O
# Tests used:
# [1] = test system: TMV-infected NN tobacco leaves; test: Induction of necrotic lesion formation by protease inhibitors in TMV-inoculated detached leaves, nn tobacco; assay type: in vivo, N. tabacum cv. Samsun nn; design: key: (−) = Necrotic lesion not induced; (+) = Necrotic lesion induced
# Method: (§1) The following reagents were used as inhibitors: APMSF, Aprotinin and 3,4-D as serine protease inhibitors, E-64 as a cysteine protease inhibitor, EDTA as a metalloprotease inhibitor, and leupeptin as a serine/cysteine protease inhibitor. Each inhibitor was prepared as described below.
# (§2) For EDTA (Wako Pure Chemicals. Ind. (Osaka, Japan), an aqueous solution adjusted to pH 8.0 by NaOH was used.
# (§3) For E-64 (Boehringer Mannheim, Germany), a 50 mM solution in methanol/H2O (1:1, v/v) was used as a stock solution and subsequently diluted in water to the concentrations indicated below.
# (§4) For 3,4-D (Boehringer Mannheim, Germany), a 50 mM solution in dimethyl sulfoxide was used as a stock solution and subsequently diluted in water to the concentrations indicated below.
# (§5) Leupeptin, Aprotinin, and APMSP were each used as an aqueous solution.
# (§6) In this example, EDTA was used at concentrations of 1 mM, […] and 50 mM, and other inhibitors were used at concentrations of 0.01 mM, 0.1 mM and 1 mM.
# (§7) Prior to reagent treatment, tobacco leaves were detached, inoculated with TMV (8 μg/ml in a phosphate buffer (pH 7.0)) or mock (buffer alone), and incubated at 30° C. for 40 hr. After the incubation, petioles of the leaves were put into vials containing 0.5 ml of inhibitor solutions. The solution was absorbed through the petioles and sterile water was added to the vials within 1 hr. The treated leaves were then further incubated at 30° C.
# [2] = test system: TMV-infected NN tobacco leaves; test: Induction of necrotic lesion formation by protease inhibitors in TMV-inoculated detached leaves, NN tobacco; assay type: in vivo, N. tabacum cv. Samsun NN; design: key to induction of necrotic lesion formation, Tobacco cv. NN: (−) = Necrotic lesion not induced; (+) = Necrotic lesion induced
# Method: as §1, §2, §3, §4, §5, §6, §7
# TMV-infected NN tobacco [3] = details: AMD and heat (50° C., 2 minutes), 30° C.; cited from earlier work
# DS9 = DS9 transcription level and protein amount after AMD treatment (northern and western blotting analysis); assay type: in vivo, NN tobacco
# Method: Prior to the treatments, tobacco leaves were detached, inoculated with TMV (10 μg/ml in a phosphate buffer (pH 7.0)) or mock inoculated (buffer alone), and incubated at 30° C. for 40 hr. For reagent treatment, after the incubation, petioles of the leaves were put into vials containing 0.5 ml of an inhibitor solutions containing AMD (Sigma Chemical Co., St. Louis, Mo., USA) as a 10% (v/v) methanol aqueous solution. The solution was absorbed through the petioles, and sterile water was added to the vials within 1 hr. For heat treatment, a TMV-infected NN tobacco was subjected to heat shock by treating at 50° C. for 2 minutes. Each of the treated leaves was then further incubated at 30° C. Northern analysis and Western blot analysis were performed as described in Examples 4 and 6. In addition, those treated with water were used as controls.
# TMV-infected NN tobacco [4] = details: AMD and heat (50° C., 2 minutes); cited from earlier work
# TMV-infected NN tobacco [5] = test: Induction of HR by EDTA and DCMU treatments, NN tobacco; assay type: in vivo, N. tabacum cv. Samsun NN; details: 30° C., EDTA 5 mM, DCMU 100 mM, necrotic lesion, PR-1 expression, salicylic acid
# Method: (§8) To perform an inhibitor treatment with NN tobacco and nn tobacco, EDTA, a metalloprotease inhibitor, and DCMU (3-(3,4-dichlorophenyl)-1,1-dimethylurea) (Sigma Chemical Co., St Louis, Mo., USA), an inhibitor of electron transport in a photochemical system II (PSII), were used as described in Example 8. An EDTA solution was prepared as described in Example 8. The DCMU was dissolved in methanol. The concentration of the inhibitors were 5 mM and 100 mM, respectively.
# (§9) After the treatment, leavs were further incubated at 30° C., then examined regarding the followig: formation of a necrotic lesion; expression of PR-1; presence of a marker gene for the HR protein; and accumulation of salicylic acid. For expression of the PR gene, Northern analysis was performed as described in Example 4. Salicylic acid was quantitated as follows.
# (§10) Free salicylic acid was extracted and quantitated as described by Malamy et al. (The Plant Cell, 4, 359 (1992)). HPLC analysis was performed on a μBondasphere, 5-μm C-18 (3.9 mm×15 cm) column maintained at 40° C. Isocratic separation was conducted with 23% (v/v) methanol in 20 mM sodium acetate (pH 5.0). Fluorescence detection was performed at using a Model RF-550A (Shimazu, Japan) at […]. All data were corrected for losses.
# TMV-infected NN tobacco [6] = test: Induction of HR by EDTA and DCMU treatments, nn tobacco; assay type: in vivo, N. tabacum cv. Samsun nn; details: 30° C., EDTA 5 mM, DCMU 100 mM, necrotic lesion, PR-1 expression, salicylic acid
# Method: as §8, §9, §10
# [7] = TMV-inoculated leaves at 30° C., EDTA 1 mM, 10 mM and 50 mM, other inhibitors 0.01 mM, 0.1 mM and 1 mM
molecule,measurement,setting,value
"O=c1oc(Cl)c(Cl)c2ccccc12 [3,4-D]","induction of necrotic lesion formation, Tobacco cv. nn",[1]; [7],−
same,"induction of necrotic lesion formation, Tobacco cv. NN",[2]; [7],−
"Cc1c2oc3c(C)ccc(C(=O)N[C@@H]4C(=O)N[C@H](C(C)C)C(=O)N5CCC[C@H]5C(=O)N(C)CC(=O)N(C)[C@@H](C(C)C)C(=O)O[C@@H]4C)c3nc-2c(C(=O)N[C@@H]2C(=O)N[C@H](C(C)C)C(=O)N3CCC[C@H]3C(=O)N(C)CC(=O)N(C)[C@@H](C(C)C)C(=O)O[C@@H]2C)c(N)c1=O [AMD, actinomycin D] (I: T[dV]P[Sar][NMeV] / II: T[dV]P[Sar][NMeV]; ester I:1-I:C, II:1-II:C; linker I:N-II:N via Actinocin(9to1))","HR against TMV infection, NN tobacco",TMV-infected NN tobacco [3],the HR is induced
same,DS9 transcription level,"DS9; TMV-infected NN tobacco, 30° C., northern analysis",decrease significantly
same,DS9 protein amount,"DS9; TMV-infected NN tobacco, 30° C., western blot",decrease significantly
same,"amount of the DS9 protein, mock infected leaf","DS9; leaf subjected to mock infection, treated with AMD and heat shock (HS)",remarkably decreased
same,"HR against TMV infection, nn tobacco",TMV-infected NN tobacco [4],the HR was also induced
N=C(N)c1ccc(CS(=O)(=O)F)cc1 [APMSF],"induction of necrotic lesion formation, Tobacco cv. nn",[1]; [7],−
same,"induction of necrotic lesion formation, Tobacco cv. NN",[2]; [7],−
"CN(C)C(=O)Nc1ccc(Cl)c(Cl)c1 [DCMU, 3-(3,4-dichlorophenyl)-1,1-dimethylurea]",induction of the HR in NN tobacco,TMV-infected NN tobacco [5],induced the HR
same,induction of the HR in nn tobacco,TMV-infected NN tobacco [6],induced the HR
CC(C)C[C@H](NC(=O)[C@H]1O[C@@H]1C(=O)O)C(=O)NCCCCN=C(N)N [E-64],"induction of necrotic lesion formation, Tobacco cv. nn",[1]; [7],−
same,"induction of necrotic lesion formation, Tobacco cv. NN",[2]; [7],−
O=C(O)CN(CCN(CC(=O)O)CC(=O)O)CC(=O)O [EDTA],"induction of necrotic lesion formation, Tobacco cv. nn",[1]; in vivo,+
same,induction of the HR in NN tobacco,TMV-infected NN tobacco [5],induced the HR
same,induction of the HR in nn tobacco,TMV-infected NN tobacco [6],induced the HR
same,"induction of necrotic lesion formation, Tobacco cv. NN",[2]; in vivo,+
same,necrotic lesion in NN tobacco,[2]; in vivo,necrotic lesion was induced
CC(=O)N[C@@H](CC(C)C)C(=O)N[C@@H](CC(C)C)C(=O)N[C@H](C=O)CCCNC(=N)N [leupeptin],"induction of necrotic lesion formation, Tobacco cv. nn",[1]; [7],−
same,"induction of necrotic lesion formation, Tobacco cv. NN",[2]; [7],−
Aprotinin,"induction of necrotic lesion formation, Tobacco cv. nn",[1]; [7],−
same,"induction of necrotic lesion formation, Tobacco cv. NN",[2]; [7],−

# Source: patent US6603060B1, “Method for regulating cell death” (National Institute of Agrobiological Sciences, priority 1998, dated 2003)
